# Measurements reported in patent US20250032623A1, “HETEROBIFUNCTIONAL COMPOUNDS AND THEIR USE IN TREATING DISEASE” (HALDA THERAPEUTICS OPCO, INC., priority 2021, published 2025).
# Key:
# [1] = system: HEK293 cells; assay: Cellular growth inhibition assay (CellTiter-Glo), HEK293 cells; assay type: cell-based; conditions: Homo sapiens, 72 h, three days compound treatment, CellTiter-Glo 2.0, read-out: CTG HEK293 GI50
# In short: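 GI50 derived by four-parameter regression of luminescence (CellTiter-Glo 2.0) at Day 0 and Day 3, normalized to DMSO wells. Cells (HeLa, HEK293; 500/well, DMEM plus 10% FBS) were dosed with compound dilutions 24 h post-seeding and exposed for three days at 37 °C.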
# [2] = system: HeLa cells; assay: Cellular growth inhibition assay (CellTiter-Glo), HeLa cells; assay type: cell-based; conditions: Homo sapiens, 72 h, three days compound treatment, CellTiter-Glo 2.0, read-out: CTG HELA GI50
# Experimental: Exemplary compounds were tested for ability to inhibit the proliferation of HEK293 cells or HeLa cells.
# HEK293 and HeLa cells were cultured in DMEM medium supplemented with 10% fetal bovine serum and 1% Penn/Strep. Cells were seeded in white 384-well plates at 500 cells/well in […] complete medium. Following seeding, plates were spun at 300×g for three minutes and cultured at 37° C. with 5% CO2 in a humidified tissue culture incubator.
# After 24 hours, compounds were titrated in 100% DMSO and diluted in complete cell culture medium. […] of compound/media mixture was added to cells to bring total volume in well to […]. DMSO alone was used as a negative control. P lates were then spun at 300×g for three minutes and stored at 37° C. with 5% CO2 for three days.
# On Day 0 and Day 3 of compound treatment, cell viability was quantified with CellTiter-Glo 2.0 reagent (Promega). After equilibrating microplates at room temperature for 30 minutes, 25 μL CellTiter-Glo 2.0 reagent was dispensed into each well to bring total volume to […]. Plates were mixed on shaker for 2 minutes at 500 rpm, followed by a 10-minute incubation at room temperature. Following a quick spin, luminescence readings were measured with an EnVision Plate Reader. Data was normalized to DMSO treated Day 0 and Day 3 readings. A four-parameter non-linear regression curve fit was applied to dose-response data in GraphPad Prism data analysis software to determine the half maximal growth inhibitory concentration (GI50) for each compound.
# [3] = biological target: T1, EGFR (Homo sapiens, UniProt P00533); assay: KdELECT binding assay, EGFR
# T1 construct: purchased
# In short: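 Competition binding: DNA- or T7 phage-tagged EGFR was incubated 1 h at room temperature with immobilized ligand beads and an 11-point 3-fold compound series (0.9% DMSO final). Bead-bound kinase was eluted and quantified by qPCR to derive Kd.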
# [4] = biological target: T2, EGFR T790M, L858R (amino acids 669-1011 Accession Number NP_005219.2) (Homo sapiens, UniProt P00533, L858R/T790M); assay: KdELECT binding assay (Eurofins Discovery), EGFR T790M, L858R; conditions: read-out: EGFR DM Kd
# T2 construct: purchased Eurofins Discovery; host or cells: mammalian cells (HEK-293)
# Experimental: (§1) Exemplary compounds were tested for ability to bind to EGFR WT (amino acids 669-1011, Accession Number NP_005219.2) or EGFR T790M, L858R (amino acids 669-1011 Accession Number NP_005219.2) expressed from bacteria or mammalian cells, respectively. Compounds were tested using the KdELECT assay at Eurofins Discovery.
# (§2) Kinase-tagged T7 phage strains were prepared in an E. coli host derived from the BL21 strain. E. coli were grown to log-phase and infected with T7 phage and incubated with shaking at 32° C. until lysis. The lysates were centrifuged and filtered to remove cell debris. The remaining kinases were produced in HEK-293 cells and subsequently tagged with DNA for qPCR detection. Streptavidin-coated magnetic beads were treated with biotinylated small molecule ligands for 30 minutes at room temperature to generate affinity resins for kinase assays. The liganded beads were blocked with excess biotin and washed with blocking buffer (SeaBlock (Pierce), 1% BSA, 0.05% Tween 20, 1 mM DTT) to remove unbound ligand and to reduce non-specific binding. Binding reactions were assembled by combining kinases, liganded affinity beads, and test compounds in 1× binding buffer (20% SeaBlock, 0.17×PBS, 0.05% Tween 20, 6 mM DTT). Test compounds were prepared as 111× stocks in 100% DMSO. Kd values were determined using an 11-point 3-fold compound dilution series with three DMSO control points. All compounds for Kd measurements are distributed by acoustic transfer (non-contact dispensing) in 100% DMSO. The compounds were then diluted directly into the assays such that the final concentration of DMSO was 0.9%. All reactions performed in polypropylene 384-well plate. Each was a final volume of 0.02 mL. The assay plates were incubated at room temperature with shaking for 1 hour and the affinity beads were washed with wash buffer (1× PBS, 0.05% Tween 20). The beads were then re-suspended in elution buffer (1× PBS, 0.05% Tween 20, 0.5 μM nonbiotinylated affinity ligand) and incubated at room temperature with shaking for 30 minutes. The kinase concentration in the eluates was measured by qPCR.
# [5] = biological target: T3, EGFR WT (amino acids 669-1011, Accession Number NP_005219.2) (Homo sapiens, UniProt P00533); assay: KdELECT binding assay (Eurofins Discovery), EGFR WT
# T3 construct: purchased Eurofins Discovery; host or cells: bacteria (E. coli, BL21-derived, T7 phage)
# Experimental: as §1, §2
# T3 sequence (P00533 669-1011): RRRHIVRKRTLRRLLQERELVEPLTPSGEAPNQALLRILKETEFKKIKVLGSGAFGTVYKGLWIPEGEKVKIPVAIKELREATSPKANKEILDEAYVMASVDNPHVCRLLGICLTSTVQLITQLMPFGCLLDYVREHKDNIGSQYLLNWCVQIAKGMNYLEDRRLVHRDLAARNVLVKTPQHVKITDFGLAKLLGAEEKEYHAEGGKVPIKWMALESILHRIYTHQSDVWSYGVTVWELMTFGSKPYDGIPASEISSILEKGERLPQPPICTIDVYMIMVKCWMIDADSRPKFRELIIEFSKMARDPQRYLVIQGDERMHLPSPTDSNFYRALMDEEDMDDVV
# T1 sequence (P00533 25-1210): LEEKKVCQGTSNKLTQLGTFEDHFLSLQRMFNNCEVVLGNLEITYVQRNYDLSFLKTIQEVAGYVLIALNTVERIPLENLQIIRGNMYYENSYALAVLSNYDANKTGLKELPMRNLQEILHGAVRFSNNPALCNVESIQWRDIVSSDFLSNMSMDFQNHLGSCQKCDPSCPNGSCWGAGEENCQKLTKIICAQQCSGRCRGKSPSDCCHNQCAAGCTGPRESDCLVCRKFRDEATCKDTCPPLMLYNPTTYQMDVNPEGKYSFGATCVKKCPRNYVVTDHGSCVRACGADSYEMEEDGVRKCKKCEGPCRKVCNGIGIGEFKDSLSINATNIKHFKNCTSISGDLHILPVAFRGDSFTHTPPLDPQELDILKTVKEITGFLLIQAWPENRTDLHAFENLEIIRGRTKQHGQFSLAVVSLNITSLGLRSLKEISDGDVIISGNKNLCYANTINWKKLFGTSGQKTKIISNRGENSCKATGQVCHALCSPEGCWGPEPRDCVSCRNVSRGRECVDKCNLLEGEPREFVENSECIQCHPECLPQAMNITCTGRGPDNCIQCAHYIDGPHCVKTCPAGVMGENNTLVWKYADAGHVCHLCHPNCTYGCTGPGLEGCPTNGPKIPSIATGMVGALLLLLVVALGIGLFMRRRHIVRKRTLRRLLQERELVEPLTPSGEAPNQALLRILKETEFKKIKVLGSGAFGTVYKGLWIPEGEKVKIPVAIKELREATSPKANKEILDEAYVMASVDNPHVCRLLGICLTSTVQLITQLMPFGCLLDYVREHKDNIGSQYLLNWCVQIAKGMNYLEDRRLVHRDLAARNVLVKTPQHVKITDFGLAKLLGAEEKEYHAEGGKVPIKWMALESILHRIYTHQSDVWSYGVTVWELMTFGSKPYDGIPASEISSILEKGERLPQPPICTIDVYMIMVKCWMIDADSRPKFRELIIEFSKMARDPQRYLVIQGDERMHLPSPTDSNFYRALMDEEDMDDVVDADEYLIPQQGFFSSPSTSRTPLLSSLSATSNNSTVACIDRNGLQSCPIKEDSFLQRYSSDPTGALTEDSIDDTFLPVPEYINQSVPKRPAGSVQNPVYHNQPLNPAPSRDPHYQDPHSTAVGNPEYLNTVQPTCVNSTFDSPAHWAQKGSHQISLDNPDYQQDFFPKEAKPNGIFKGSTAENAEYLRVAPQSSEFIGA
# T2 sequence (P00533 669-1011 T790M/L858R): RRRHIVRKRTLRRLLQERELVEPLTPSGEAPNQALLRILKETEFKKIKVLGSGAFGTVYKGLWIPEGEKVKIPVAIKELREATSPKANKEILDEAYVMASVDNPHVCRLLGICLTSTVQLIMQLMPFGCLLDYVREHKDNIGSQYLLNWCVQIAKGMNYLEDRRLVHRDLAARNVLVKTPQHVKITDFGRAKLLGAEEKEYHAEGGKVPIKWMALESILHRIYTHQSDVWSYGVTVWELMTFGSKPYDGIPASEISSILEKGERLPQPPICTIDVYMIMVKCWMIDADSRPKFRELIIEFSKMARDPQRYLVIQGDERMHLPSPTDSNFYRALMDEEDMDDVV
SMILES,GI50 [1] [nM],GI50 [2] [nM],Kd [3] [nM],Kd [4] [nM],Kd [5] [nM]
"C=CC(=O)N[C@@H]1CN(c2nc(Nc3cn(CCCN4CCN(CCCON(C)C(=O)N5N=C(c6cc(F)ccc6F)S[C@@]5(CCCN)c5ccccc5)CC4)nc3OC)c3ncn(C)c3n2)C[C@H]1F [Compound I-137, (2S)-2-(3-aminopropyl)-5-(2,5-difluorophenyl) —N-[3-[4-[3-[4-[[2-[(3R,4R)-3-fluoro-4-(prop-2-enoylamino)pyrrolidin-1-yl]-9-methyl-purin-6-yl]amino]-3-methoxy-pyrazol-1-yl]propyl]piperazin-1-yl]propoxy]-N-methyl-2-phenyl-1,3,4-thiadiazole-3-carboxamide]",> 5000,1500 to 5000,< 50,< 50,< 50
"C=CC(=O)N[C@@H]1CN(c2nc(Nc3cn(CCCN4CCN(CCCNC(=O)c5ccc(Nc6ncc7c(n6)N(C6CCCC6)[C@H](CC)C(=O)N7C)c(OC)c5)CC4)nc3OC)c3ncn(C)c3n2)C[C@H]1F [Compound I-136, 4-[[(7R)-8-cyclopentyl-7-ethyl-5-methyl-6-oxo-7H-pteridin-2-yl]amino]-N-[3-[4-[3-[4-[[2-[(3R,4R)-3-fluoro-4-(prop-2-enoylamino)pyrrolidin-1-yl]-9-methyl-purin-6-yl]amino]-3-methoxy-pyrazol-1-yl]propyl]piperazin-1-yl]propyl]-3-methoxy-benzamide]",500 to 1500,< 500,< 50,< 50,< 50
"C=CC(=O)Nc1cc(Nc2nccc(-c3cn(C)c4ccccc34)n2)c(OC)cc1N(C)CCN(C)CCCN1CCN(CCCOc2ccc(CNc3cc(N4CCCC[C@H]4CCO)nc4c(CC)cnn34)cn2)CC1 [Compound I-149, N-[2-[2-[3-[4-[3-[[5-[[[3-ethyl-5-[(2S)-2-(2-hydroxyethyl)-1-piperidyl]pyrazolo[1,5-a]pyrimidin-7-yl]amino]methyl]-2-pyridyl]oxy]propyl]piperazin-1-yl]propyl-methyl-amino]ethyl-methyl-amino]-4-methoxy-5-[[4-(1-methylindol-3-yl)pyrimidin-2-yl]amino]phenyl]prop-2-enamide]",< 500,< 500,500 to 2500,< 50,500 to 2500
"CCC1C(=O)N(C)c2cnc(Nc3ccc(C(=O)NCCOCCOCCOCCOCCN(C)CC=CC(=O)NC4CN(c5nc(Nc6cn(C)nc6OC)c6ncn(C)c6n5)CC4F)cc3OC)nc2N1C1CCCC1 [Compound I-126, 4-[[(7R)-8-cyclopentyl-7-ethyl-5-methyl-6-oxo-7H-pteridin-2-yl]amino]-N-[2-[2-[2-[2-[2-[[(E)-4-[ [(3R,4R)-4-fluoro-1-1[6-1[(3-methoxy-1-methyl-pyrazol-4-yl)amino]-9-methyl-purin-2-yl]pyrrolidin-3-yl]amino]-4-oxo-but-2-enyl]-methyl-amino]ethoxy]ethoxy]ethoxy]ethoxy]ethyl]-3-methoxy-benzamide]",< 500,500 to 1500,500 to 2500,50 to 500,500 to 2500
C=CC(=O)Nc1cc(Nc2nccc(-c3cn(C)c4ccccc34)n2)c(OC)cc1N(C)CCN(C)CCOCCOCCOCCOCCON(C)C(=O)N1N=C(c2cc(F)ccc2F)SC1(CCCN)c1ccccc1 (centres unmarked) [Compound I-67],500 to 1500,500 to 1500,< 50,< 50,50 to 500
C=CC(=O)N[C@@H]1CN(c2nc(Nc3cn(CCOCCOCCOCCOCCNC(=O)c4ccc(Nc5ncc6c(n5)N(C5CCCC5)[C@H](CC)C(=O)N6C)c(OC)c4)nc3OC)c3ncn(C)c3n2)C[C@H]1F [Compound I-125],1500 to 5000,> 5000,50 to 500,< 50,50 to 500
"C=CC(=O)Nc1cc(Nc2nccc(-c3cn(C)c4ccccc34)n2)c(OC)cc1N(C)CCN(C)CCOCCOCCOc1ccc(CNc2cc(N3CCCC[C@H]3CCO)nc3c(CC)cnn23)cn1 [Compound I-141, N-[2-[2-[2-[2-[2-[[5-[[[3-ethyl-5-[(2S)-2-(2-hydroxyethyl)-1-piperidyl]pyrazolo[1,5-a]pyrimidin-7-yl]amino]methyl]-2-pyridyl]oxy]ethoxy]ethoxy]ethyl-methyl-amino]ethyl-methyl-amino]-4-methoxy-5-[[4-(1-methylindol-3-yl)pyrimidin-2-yl]amino]phenyl]prop-2-enamide]",< 500,< 500,50 to 500,< 50,50 to 500
"CC[C@@H]1C(=O)N(C)c2cnc(Nc3ccc(C(=O)NCCCN4CCN(CCCN(C)C/C=C/C(=O)N[C@@H]5CN(c6nc(Nc7cn(C)nc7OC)c7ncn(C)c7n6)C[C@H]5F)CC4)cc3OC)nc2N1C1CCCC1 [Compound I-152, 4-[[(7R)-8-cyclopentyl-7-ethyl-5-methyl-6-oxo-7H-pteridin-2-yl]amino]-N-[3-[4-[3-[[(E)-4-[[(3R,4R)-4-fluoro-1-1[6-1[(3-methoxy-1-methyl-pyrazol-4-yl)amino]-9-methyl-purin-2-yl]pyrrolidin-3-yl]amino]-4-oxo-but-2-enyl]-methyl-amino]propyl]piperazin-1-yl]propyl]-3-methoxy-benzamide]",> 5000,< 500,500 to 2500,< 50,500 to 2500
"C=CC(=O)Nc1cc(Nc2nccc(-c3cn(C)c4ccccc34)n2)c(OC)cc1N(C)CCN(C)CCCN1CCN(CCCNC(=O)c2ccc(Nc3ncc4c(n3)N(C3CCCC3)[C@H](CC)C(=O)N4C)c(OC)c2)CC1 [Compound I-122, 4-[(8-cyclopentyl-7-ethyl-5-methyl-6-oxo-7H-pteridin-2-yl)amino]-3-methoxy-N-[3-[4-[3-[2-[5-methoxy-N-methyl-4-[[4-(1-methylindol-3-yl)pyrimidin-2-yl]amino]-2-(prop-2-enoylamino)anilino]ethyl-methyl-amino]propyl]piperazin-1-yl]propyl]benzamide]",1500 to 5000,1500 to 5000,50 to 500,< 50,500 to 2500
"CC[C@@H]1C(=O)N(C)c2cnc(Nc3ccc(C(=O)NCCOCCOCCOCCOCCN(C)C/C=C/C(=O)Nc4cc(Nc5nccc(-c6cn(C)c7ccccc67)n5)c(OC)cc4N(C)CCN(C)C)cc3OC)nc2N1C1CCCC1 [Compound I-123, 4-[[(7R)-8-cyclopentyl-7-ethyl-5-methyl-6-oxo-7H-pteridin-2-yl]amino]-N-[2-[2-1[2-[2-[2-[[(E)-4-[2-1[2-(dimethylamino)ethyl-methyl-amino]-4-methoxy-5-[1[4-(1-methylindol-3-yl)pyrimidin-2-yl]amino]anilino]-4-oxo-but-2-enyl]-methyl-amino]ethoxy]ethoxy]ethoxy]ethoxy]ethyl]-3-methoxy-benzamide]",500 to 1500,500 to 1500,> 2500,< 50,> 2500
